In the CheMixHub drug solubility set:

Test: xn = mol fraction of the nth substance listed, in the solute-free solvent

O=C(O)c1ccc(C(=O)O)o1 + O + COCCOC
solubility (g/100 g solution)
Details	303.15 K	308.15 K	313.15 K	318.15 K	323.15 K	328.15 K	333.15 K	338.15 K	343.15 K
x2 = 0.1	1.42	1.44	1.5	1.57	1.65	1.75	1.83	1.93	2.05
x2 = 0.2	2.73	2.79	2.9	3.02	3.16	3.31	3.48	3.7	3.94
x2 = 0.3	3.75	3.9	4.06	4.22	4.39	4.58	4.79	5.05	5.33
x2 = 0.4	4.61	4.81	5.03	5.24	5.47	5.78	6.11	6.45	6.82
x2 = 0.5	5.53	5.75	6.03	6.31	6.69	7.05	7.45	7.81	8.16
x2 = 0.6	6.14	6.36	6.59	6.86	7.15	7.49	7.86	8.22	8.61
x2 = 0.7	5.57	5.8	6.08	6.35	6.64	6.93	7.24	7.62	8.03
x2 = 0.8	4.68	4.88	5.09	5.35	5.55	5.83	6.13	6.48	6.86
x2 = 0.9	4.41	4.57	4.74	4.91	5.11	5.32	5.55	5.87	6.22

O=C(O)c1ccc(C(=O)O)o1 + O + COCCOCCOC
solubility (g/100 g solution)
Details	x2 = 0.1	x2 = 0.2	x2 = 0.3	x2 = 0.4	x2 = 0.5	x2 = 0.6	x2 = 0.7	x2 = 0.8	x2 = 0.9
303.15 K	1.37	2.07	2.83	4.05	5.13	6.23	6.17	5.55	3.4
308.15 K	1.42	2.15	2.96	4.22	5.35	6.45	6.42	5.78	3.72
313.15 K	1.47	2.23	3.09	4.4	5.58	6.69	6.69	6.02	4.05
318.15 K	1.53	2.34	3.23	4.59	5.79	6.96	6.97	6.3	4.34
323.15 K	1.59	2.46	3.37	4.79	6.03	7.25	7.28	6.59	4.64
328.15 K	1.67	2.56	3.53	5	6.29	7.62	7.59	6.96	4.91
333.15 K	1.74	2.68	3.71	5.23	6.58	8.03	7.93	7.36	5.21
338.15 K	1.84	2.83	3.88	5.46	6.96	8.47	8.33	7.78	5.51
343.15 K	1.92	2.94	4.01	5.62	7.24	8.75	8.61	8.14	5.75
348.15 K	2	3.1	4.17	5.84	7.52	9.16	9.15	8.46	6.05
353.15 K	2.07	3.25	4.3	6.03	7.75	9.47	9.63	8.76	6.31
